Article PMC8177813 (Journal of pharmaceutical sciences, 2020)
Where a name gives a salt, the structure may show the parent alone. Read-outs that look alike come from different tables or passages of the source. Marks after values point to notes of the source that are not given here.

Columns and labels:
[1] = target: T1, human OAT3 (Homo sapiens, UniProt Q8TCC7); experiment: cell-based
T1 sequence (Q8TCC7 1-542): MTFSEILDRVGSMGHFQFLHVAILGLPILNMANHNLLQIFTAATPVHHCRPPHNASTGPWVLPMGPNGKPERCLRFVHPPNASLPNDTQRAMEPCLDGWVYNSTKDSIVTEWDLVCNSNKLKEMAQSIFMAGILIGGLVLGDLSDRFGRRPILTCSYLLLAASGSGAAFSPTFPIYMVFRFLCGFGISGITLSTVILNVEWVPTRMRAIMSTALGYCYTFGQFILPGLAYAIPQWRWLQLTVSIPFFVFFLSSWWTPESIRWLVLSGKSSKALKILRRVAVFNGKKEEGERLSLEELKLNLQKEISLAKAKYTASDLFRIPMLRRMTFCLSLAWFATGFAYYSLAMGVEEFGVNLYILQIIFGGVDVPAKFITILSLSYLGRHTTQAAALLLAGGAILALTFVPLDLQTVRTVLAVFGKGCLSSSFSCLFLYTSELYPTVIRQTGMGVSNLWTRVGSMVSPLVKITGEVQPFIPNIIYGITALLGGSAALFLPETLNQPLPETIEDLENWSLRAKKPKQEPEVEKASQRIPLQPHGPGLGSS

[2] = target: T2, human OAT1 (Homo sapiens, UniProt Q4U2R8); experiment: Inhibition of OAT1-mediated 6-carboxyfluorescein
T2 sequence (Q4U2R8 1-563): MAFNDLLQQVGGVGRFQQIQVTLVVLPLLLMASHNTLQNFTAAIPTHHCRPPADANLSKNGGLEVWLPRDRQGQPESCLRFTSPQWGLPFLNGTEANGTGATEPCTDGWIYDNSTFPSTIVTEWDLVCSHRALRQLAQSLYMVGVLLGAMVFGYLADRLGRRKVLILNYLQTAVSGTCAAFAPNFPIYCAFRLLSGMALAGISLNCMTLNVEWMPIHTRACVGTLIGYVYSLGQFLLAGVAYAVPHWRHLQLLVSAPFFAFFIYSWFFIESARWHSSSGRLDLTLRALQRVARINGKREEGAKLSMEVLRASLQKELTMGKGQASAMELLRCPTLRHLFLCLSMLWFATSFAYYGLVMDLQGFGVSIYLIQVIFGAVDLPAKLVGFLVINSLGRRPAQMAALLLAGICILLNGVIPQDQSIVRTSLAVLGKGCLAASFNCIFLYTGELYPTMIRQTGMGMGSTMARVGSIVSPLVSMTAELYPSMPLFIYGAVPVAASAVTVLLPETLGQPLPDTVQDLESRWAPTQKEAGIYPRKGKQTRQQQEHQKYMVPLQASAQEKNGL

[3] = target: T1, human OAT3; experiment: Inhibition of OAT3-mediated 6-carboxyfluorescein
[4] = cited from earlier work
[5] = in vivo
[6] = cited from earlier work; for Cmax / Unbound Fraction: plasma
[7] = target: T1, human OAT3
[8] = cited from earlier work; remark: listed apart in the source
[9] = ref https://doi.org/10.1002/cpdd.132
[10] = read-out: Ki (OAT1), HEK293 cells stably transfected with OAT1, 2 μM 6CF, 3 min, 37 °C, […]
[11] = ref https://doi.org/10.1002/j.1552–4604.1993.tb04699.x
[12] = ref https://doi.org/10.1124/jpet.110.165852

| Molecule | Ki [1] [nM] | Ki [2] [nM] | Ki ([3]; read-out: Ki (OAT3)) [nM] | Ki ([2]; read-out: Ki (OAT1)) [nM] | further results |
| --- | --- | --- | --- | --- | --- |
| CN(CCOc1ccc(CC2SC(=O)NC2=O)cc1)c1ccccn1 (centres unmarked) [Rosiglitazone, reference compound] | 590 | 4200 | – | – | – |
| CC(=O)CC(c1ccccc1)c1c(O)c2ccccc2oc1=O (centres unmarked) [Warfarin, reference compound] | – | 15800 | – | – | Ki [3]: 3110 nM |
| CC(C)c1nc(N(C)S(C)(=O)=O)nc(-c2ccc(F)cc2)c1/C=C/[C@@H](O)C[C@@H](O)CC(=O)O [rosuvastatin] | – | – | – | – | renal clearance as share of total plasma clearance [4]: 28%; share of renal clearance thought to result from OAT3-mediated tubular secretion [4]: 90% |
| Cc1ccc(-c2cc(C(F)(F)F)nn2-c2ccc(S(N)(=O)=O)cc2)cc1 [Celecoxib, reference compound] | > 200000 | > 200000 | – | – | – |
| C[C@]12CC[C@H](OS(=O)(=O)O)CC1=CC[C@@H]1[C@@H]2CC[C@]2(C)C(c3cccnc3)=CC[C@@H]12 [Abiraterone sulfate] | – | – | 1830 | 38200 | Cmax,u [5]: 0.25 µM; Cmax [6, 9]: 25 µM |
| CCCCc1nc(Cl)c(C(=O)O)n1Cc1ccc(-c2ccccc2-c2nn[nH]n2)cc1 [Losartan carboxylic acid] | 100 | 690 | – | – | plasma unbound fraction ([6]; no reference given): lower than 1%; times more potent in inhibiting OAT3 than parent drug ([3]; metabolite versus losartan): 3.6 times; times more potent in inhibiting OAT1 than parent drug ([2]; metabolite versus losartan): 16.5 times |
| CC(C(=O)O)c1ccc(-c2ccccc2)c(F)c1 (centres unmarked) [Flurbiprofen, reference compound] | 1800 | 1910 | – | – | – |
| C[C@]12CC[C@H](OS(=O)(=O)O)CC1=CC[C@@H]1[C@@H]2CC[C@]2(C)C(c3ccc[n+]([O-])c3)=CC[C@@H]12 [Abiraterone N-oxide sulfate] | – | – | 1360 | – | Cmax,u [5]: 0.092 µM; Cmax [6, 9]: 9.2 µM; Ki [2, 10]: > 100000 nM |
| CC(O)c1ccc(CCOc2ccc(CC3SC(=O)NC3=O)cc2)nc1 (centres unmarked) [Hydroxy pioglitazone] | 1370 | 27600 | – | – | – |
| CN(CCOc1ccc(CC2SC(=O)NC2=O)cc1)c1ccc(OS(=O)(=O)O)cn1 (centres unmarked) [5-OH-rosiglitazone sulfate] | – | – | 1310 | 33700 | – |
| C[C@]12CC[C@@H]3c4ccc(OS(=O)(=O)O)cc4CC[C@H]3[C@@H]1CCC2=O [Estrone sulfate, reference compound] | – | – | – | – | Ki [7]: 1000 nM |
| COc1ccc(Cl)cc1C(=O)NCCc1ccc(S(=O)(=O)NC(=O)N[C@H]2CCC[C@@H](O)C2)cc1 (relative stereo) [3-cis-hydroxycyclohexyl glyburide] | – | – | 810 | – | Ki [2, 10]: 10100 nM |
| C[C@]12CC[C@H](O)CC1=CC[C@@H]1[C@@H]2CC[C@]2(C)C(c3cccnc3)=CC[C@@H]12 [Abiraterone, reference compound] | > 20000 | > 20000 | – | – | Cmax [6, 9]: 0.37 µM; basic pKa [8]: 5.19 |
| Cc1ccc(C(=O)c2ccc(CC(=O)O)n2C)cc1 [Tolmetin, reference compound] | 810 | 3010 | – | – | – |
| CC1=C(CC(=O)O)c2cc(F)ccc2/C1=C\c1ccc(S(C)(=O)=O)cc1 [Sulindac sulfone] | – | – | 600 | 23000 | Cmax [6, 11]: 4.48 µM; Unbound Fraction [6, 12]: 2.1%^b |
| CC(=O)C[C@@H](c1ccccc1)c1c(O)c2ccc(O)cc2oc1=O [(S)-7-hydroxy warfarin] | – | – | 1930 | 14500 | – |
| NS(=O)(=O)c1ccc(-n2nc(C(F)(F)F)cc2-c2ccc(C(=O)O)cc2)cc1 [Celecoxib carboxylic acid] | – | – | 8430 | 262000 | acidic pKa [8]: 3.98 |
| O=c1n(CCCN2CCN(c3cccc(Cl)c3)CC2)nc2ccccn12 [Trazodone, reference compound] | 2940 | 19900 | – | – | – |
| CSc1ccc(/C=C2/C(C)=C(CC(=O)O)c3cc(F)ccc32)cc1 [Sulindac sulfide] | 660 | 3680 | – | – | Cmax [6, 11]: 22.6 µM; Unbound Fraction [6, 11]: 6.01%; Unbound Fraction [6, 12]: 4.6% |
| CC(C(=O)O)c1cccc(C(=O)c2ccccc2)c1 (centres unmarked) [Ketoprofen, reference compound] | – | 1730 | – | – | Ki [3]: 1610 nM |

| Molecule | Ki [1] [nM] | Ki [2] [nM] | Ki ([3]; read-out: Ki (OAT3)) [nM] | Ki ([2]; read-out: Ki (OAT1)) [nM] | further results |
| --- | --- | --- | --- | --- | --- |
| Cc1ccc(NC(=O)c2ccc(CN3CC[N+](C)([O-])CC3)cc2)cc1Nc1nccc(-c2cccnc2)n1 [Imatinib (piperidine)-4-oxide] | – | – | 64200 | > 200000 | – |
| 4-Hydroxy flurbiprofen | – | – | 1390 | 1600 | – |
| Cc1ccc(C(=O)c2ccc(CC(=O)O[C@@H]3O[C@H](C(=O)O)[C@@H](O)[C@H](O)[C@H]3O)n2C)cc1 [Tolmetin β-D-glucuronide] | – | – | 2920 | 7170 | – |
| O=C1NC(=O)C(Cc2ccc(OCCNc3ccccn3)cc2)S1 (centres unmarked) [N-desmethyl rosiglitazone] | – | – | 1150 | 33300 | – |
| CN(CCOc1ccc(CC2SC(=O)NC2=O)cc1)c1ccc(O[C@@H]2O[C@H](C(=O)O)[C@@H](O)[C@H](O)[C@H]2O)cn1 (stereo partly drawn) [5-Hydroxy Rosiglitazone β-D-Glucuronide] | – | – | > 200000 | > 200000 | – |
| O=c1n(CCCN2CCN(c3ccc(O)c(Cl)c3)CC2)nc2ccccn12 [4-hydroxy-trazodone] | – | – | 16900 | > 200000 | – |
| Cc1cnc(NC(=O)C2=C(O)c3ccccc3S(=O)(=O)N2C)s1 [Meloxicam, reference compound] | 540 | 6880 | – | – | – |
| C[C@H](C(=O)O)c1ccc2cc(O)ccc2c1 [(S)-O-desmethyl naproxen] | – | – | 3440 | 4700 | – |
| COc1ccc2cc([C@H](C)C(=O)O[C@@H]3O[C@H](C(=O)O)[C@@H](O)[C@H](O)[C@H]3O)ccc2c1 [(S)-naproxen acyl-β-D-glucuronide] | – | – | 5430 | > 200000 | – |
| COc1ccc2c(c1)c(CC(=O)O)c(C)n2C(=O)c1ccc(Cl)cc1 [Indomethacin] | 110 | – | – | – | – |
| COc1ccc(Cl)cc1C(=O)NCCc1ccc(S(=O)(=O)NC(=O)NC2CCCCC2)cc1 [Glyburide, reference compound] | 210 | 5700 | – | – | – |
| CCc1ccc(CCOc2ccc(CC3SC(=O)NC3=O)cc2)nc1 (centres unmarked) [Pioglitazone, reference compound] | 1020 | 6300 | – | – | – |
| Cc1c(CC(=O)O)c2cc(O)ccc2n1C(=O)c1ccc(Cl)cc1 [O-desmethyl indomethacin] | – | – | 270 | 1620 | – |
| CCCN(CCC)S(=O)(=O)c1ccc(C(=O)O[C@@H]2O[C@H](C(=O)O)[C@@H](O)[C@H](O)[C@H]2O)cc1 | – | – | – | – | Ki [7]: 19900 nM |
| CN1C(C(=O)Nc2ncc(C(=O)O)s2)=C(O)c2ccccc2S1(=O)=O [5-Carboxy-meloxicam] | – | – | 700 | 19600 | – |
| CC(=O)c1ccc(CCOc2ccc(CC3SC(=O)NC3=O)cc2)nc1 (centres unmarked) [Keto pioglitazone] | – | – | 730 | 12500 | – |
| CC1=C(CC(=O)O)c2cc(F)ccc2/C1=C\c1ccc([S+](C)[O-])cc1 (centres unmarked) [Sulindac, reference compound] | 1650 | 56800 | – | – | Unbound Fraction [6, 11]: 6.78%^a |
| CCCCc1nc(Cl)c(CO)n1Cc1ccc(-c2ccccc2-c2nn[nH]n2)cc1 [Losartan, reference compound] | 360 | 11400 | – | – | Unbound Fraction ([6]; ref Drugbank (https://www.drugbank.ca/drugs/DB00678)): 1.4%^d |
| O=C(O)Cc1ccccc1Nc1c(Cl)cc(O)cc1Cl [4-Hydroxy diclofenac] | – | – | 2030 | 480 | – |
